Results on 7 compounds are retold here after patent publication US5814627A, “3, 5-disubstituted and 3, 4, 5-trisubstituted 2-isoxazolines and isoxazoles, process for their preparation and their use as pharmaceuticals” (Hoechst Aktienegesellschaft, priority 1994, dated 1998).

Where a name gives a salt, the structure may show the parent alone.

Test [1] concerns adjuvant/arthritis model. Nature of the test: Test 6: antiarthritic effect in the adjuvant/arthritis model. Particulars: Rattus norvegicus, po, 408 h, daily for 17 days, rat, read-out: Test 6 Paw volume (% inhibition); for inhibition in vivo at 50 mg/kg: 50 mg/kg orally; for inhibition in vivo at 25 mg/kg: 25 mg/kg orally. The test is classed as in vivo, rat (Wistar-Lewis).
Procedure: Male rats of a Wistar-Lewis strain (Mollegaard/Denmark) were used as experimental animals. The body weight is between 160 and 200 g. Subplantar injection of 0.1 ml of Freund's adjuvant (=6 mg of Mycobacterium butyricum suspension, Difco Lab./Detroit, Mich. USA, per ml of heavy white paraffin oil, Merck, Darmstadt) into the root of the tail resulted, on the 10th to 14th day of the experiment, in immunopathological processes and chronic inflammations, particularly in the form of arthritic and periarthritic symptoms, at other sites in the body (secondary lesions). The animals were fed ad libitum with the standard feed Altromin-R, from Altrogge, Lage, and provided with tap water. The animals were given 60 mg of codein per kg as an analgesic from the 14th day to the end of the experiment. The test substances were administered orally as a CMC suspension, in an injection volume of 1 ml/100 g of body weight, on each day (in all for 17 days), beginning on the day of the adjuvant administration. The volumes of each of the hind paws, and the body weight, were measured on the first and on the 18th day of the experiment. Diminution in the increase of paw volume, as compared with the untreated control group, served as the criterion of activity, with the two hind paws being averaged.
Test [2] concerns tumor cell line 20-10-5S (hybridoma cell line). Nature of the test: Test 8: Inhibition of tumor cell proliferation. The test is classed as cell-based. Particulars: 48 h + 16 h tritiated thymidine incorporation; 20-10-5S cells. (In general: Incorporation of labelled thymidine or its analogues reports DNA synthesis.)
For test [3], the system named is cyclooxygenase-dependent thrombocyte aggregation. Nature of the test: Test 5: Cyclooxygenase-dependent thrombocyte aggregation. Particulars: Homo sapiens, arachidonic acid as inducer, read-out: Test 5 residual activity (cyclooxygenase-dependent thrombocyte aggregation), percent of control. The class given is cell-based, human. The method in brief: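 Citrated human platelet-rich plasma was preincubated 10 min at 37 °C with test substance diluted 1:30 in 50 mM Tris-HCl pH 8.0, 90 mM NaCl. Aggregation was triggered with arachidonic acid (5 mg/ml, 20 μl) under 800 rpm stirring in an aggregometer. Values are tested concentration (μM) and residual activity as % of control.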

For test [4], the system named is PAF-induced asthma attack. Nature of the test: Test 7: antiasthmatic effect, PAF-induced asthma attack. The test is classed as in vivo. Conditions: Cavia porcellus; i.d., 15 minutes before PAF; guinea pig. The procedure:
Test 7: Testing for antiasthmatic effect
Anesthetized guinea pigs, which were cannulated in the jugular vein to allow injection of the PAF, were used for testing for antiasthmatic effect. The test preparations were also administered intravenously (i.v.), 5 min before PAF administration, into the blood stream through the same venous cannula, or else administered intraduodenally (i.d.), 15 minutes before the PAF, through an opening in the duodenum which had been installed and cannulated surgically. The bronchial width was recorded in an overflow pneumonogram before and after administering the preparation. Evaluation: ED50 in mg/kg i.d. as compared with the PAF-induced asthma attack.

Test [5] deals with leukotriene B4 synthesis in white blood cells. In words: Test 3: LTB4 formation by white blood cells. The test is classed as cell-based. Particulars: Homo sapiens, read-out: Test 3 residual activity (LTB4 formation), percent of control. The protocol:
TEST 3. LTB4 formation by white blood cells
Isolation of white blood cells:
40 ml of human blood were mixed with 8 ml of 6% dextran solution (dextran, mw: 480,000 in PM16). After one hour at room temperature, the supernatant,which was composed of white blood cells, was removed, diluted with an equal volume of PM16, and centrifuged for 15 minutes at 300×g (1600 rpm). The sediment was next resuspended in approximately 5-6 ml of PM16 and, once the cell count had been determined in a Coulter Counter, adjusted to 10^7 cells/ml.
The test mixture comprised 0.24 ml of cell suspension, 0.03 ml of 20 mM CaCl2 /5 mM MgCl2 and 5 μl of test substance. Following 15 minutes of preincubation at 37° C., the reaction was started with 0.03 ml of A23187/glutathione (100 μg of A23187/ml; 15.4 μg of glutathione/ml). The incubation was terminated after 5 minutes at 37° C. by immediate cooling of the samples down to 0° C. After centrifuging for 2 minutes in an Eppendorff Centrifuge (0° C.), the supernatant was removed and examined chromatographically.
High pressure liquid chromatography (HPLC): the HPLC equipment comprises a Kratos pump (Spectro-flow 400), a cooled automatic BT 7041 sample injector (Biotronik) having a 75 μl sample loop, a Nucleosil C18 column (100*3 mm, 5 μm particles of Chrompack), a UV detector (Kratos) Spectroflow 757 (wavelength: 280 nm, measurement range: 0.1 AUFS, time constant: 0.5 s) and a Spectra Physics integrator (SP 4270). The eluent (725 ml of methanol, 275 ml of water and 0.1 ml of acetic acid) was supplied at a flow rate of 0.7 ml/minute and at a pressure of about 100 bar.
When doing this, the measurement range which has been set can be examined and altered if necessary. It is also vital to measure the test substances at the particular test concentration (e.g.: 10^-5 M) in PM16 before the cell incubation, since the test substances might conceal the LTB4 peak. If this is the case, a lower concentration must be selected.
(§1) The values in the table show the concentration of the test substance which was employed in μM and, besides this, the residual activity measured in percent based on the control, which was set to be 100%. The interleukin is additionally indicated in test 4.

For test [6], the system named is polymorphonuclear leucocytes (PMNL). Nature of the test: Test 2: Release of oxygen radicals from human PMNL. Particulars: read-out: Test 2 residual activity (release of oxygen radicals), percent of control. The test is classed as cell-based. The procedure: Isolation of polymorphonuclear leucocytes (PMNL) from human peripheral blood for carrying out tests 1 and 2 10 ml of human blood were diluted with 10 ml of HBSS (Serva) and underlaid with 15 ml of Lymphoprep (Dr. Molter GmbH, Heidelberg). The sample was then centrifuged for 25 minutes at 400×g (1600 revolutions per minute, Minifuge 2, Heraeus, Osterode). […] A white ring, composed of mononuclear cells, is located between these two phases. The lowermost phase is composed of erythrocytes which are covered with a white layer of PMNL. The uppermost phase, and also the Lymphoprep and the white ring, were carefully removed using a syringe. The remaining sediment was carefully resuspended in 15 ml of 3% dextran in PM16 (mw: 485,000, Sigma, Deisenhofen). The suspension was then left to stand at room temperature for one hour. During this time, the erythrocytes sedimented while the PMNL remained in the supernatant. The supernatant was removed, diluted with an approximately equal volume of PM16, and centrifuged for 15 minutes at 400×g. Should the PMNL sediment be heavily contaminated with erythrocytes, it is necessary to carry out a hypotonic lysis. To do this, the sediment was resuspended in 750 μl of water. After exactly 15 seconds, the suspension was diluted with approximately 7 ml of PM16 and centrifuged for 10 minutes at 400×g. If necessary, this lysis was repeated once more. Otherwise, the PMNL sediment was resuspended in a suitable medium.
The PMNL were resuspended (5·10^6 cells/ml) in Dulbecco's PBS, supplemented with 7.5 mM glucose. Care must be taken to ensure that the PMNL are free of erythrocytes. 100 μl of PMNL, 700 μl of PBS+glucose and 100 μl of cytochrome C (9.38 mg/ml of PBS+glucose) were mixed in a semi-microcuvette. 100 μl of PMNL, 500 μl of PBS+glucose, 100 μl of cytochalasin B ([…]), 100 μl of TNF (0.05 ng) and 100 μl of cytochrome C (9.38 mg/ml of PBS+glucose) were mixed for the fMLP-induced release of oxygen. Measurements were made in a double-beam photometer meter (Perkin-Elmer 552 S) at a wavelength of 550 nm. The measurement range is 0-1 extinction units. The cuvettes were temperature-equilibrated to 37° C. The reference cuvette additionally contained 10 μl of SOD (6 mg of SOD/ml of PBS+glucose). Following a preincubation of 5 minutes, the reaction is started with 100 μl of inducer. The reaction is started with 1·10^-7 mol of fMLP.
as §1

Test [7] has the same test system. Nature of the test: Test 1: Release of proteolytic activity from human PMNL. The class given is cell-based. Particulars: Homo sapiens, PMNL, read-out: Test 1 residual activity (release of proteolytic activity), percent of control. The protocol: Isolation of polymorphonuclear leucocytes (PMNL) from human peripheral blood for carrying out tests 1 and 2 10 ml of human blood were diluted with 10 ml of HBSS (Serva) and underlaid with 15 ml of Lymphoprep (Dr. Molter GmbH, Heidelberg). […] A white ring, composed of mononuclear cells, is located between these two phases. The lowermost phase is composed of erythrocytes which are covered with a white layer of PMNL. The uppermost phase, and also the Lymphoprep and the white ring, were carefully removed using a syringe. The remaining sediment was carefully resuspended in 15 ml of 3% dextran in PM16 (mw: 485,000, Sigma, Deisenhofen). The suspension was then left to stand at room temperature for one hour. During this time, the erythrocytes sedimented while the PMNL remained in the supernatant. The supernatant was removed, diluted with an approximately equal volume of PM16, and centrifuged for 15 minutes at 400×g. Should the PMNL sediment be heavily contaminated with erythrocytes, it is necessary to carry out a hypotonic lysis. To do this, the sediment was resuspended in 750 μl of water. After exactly 15 seconds, the suspension was diluted with approximately 7 ml of PM16 and centrifuged for 10 minutes at 400×g. If necessary, this lysis was repeated once more. Otherwise, the PMNL sediment was resuspended in a suitable medium. 250 μl of PMNL (5·10^6 cells/ml of PBS containing 7.5 mM glucose) were incubated at 37° C. for 20 minutes with 1 μl of test substance. 1 μl of cytochalasin B (5 μg/ml of test mixture) was then added and the mixture was incubated at 37° C. for a further 5 minutes. Following the addition of 1 μl of […] necrosis factor alpha (TNF; 30 ng/ml of test mixture), the incubation was continued for 5 minutes. The release was started using 1 μl of fMLP (10 nmol/l of test mixture). After 60 minutes at 37° C., the reaction was terminated by cooling the samples down to 0° C. The samples were then centrifuged, and the supernatant was removed and frozen down. Cytochalasin B and fMLP were dissolved in DMSO and TNF was diluted with buffer. 50 μl of the supernatant were mixed with 175 μl of buffer (100 mM HEPES, pH 7.5; 500 mM NaCl) in a 96-well microtiter plate. Following the addition of 25 μl of substrate (methoxysuccinyl-[…]-nitroanilide), the extinction of each well was measured at 405 nm after 0, 5, 10, 15, 30 and 60 minutes. […] The interleukin is additionally indicated in test 4.

In general, IC50 refers to the concentration needed to halve the response being measured. What is called ED50 is the dose that gives a 50% effect, or the effect in half of the subjects. Low values mean greater potency, high ones weaker potency. For `CC(C)(C)c1cc(C2=NOC(c3ccsc3)C2)cc(C(C)(C)C)c1O` (stereo not drawn) [Example 8], in test [1], the inhibition in vivo at 50 mg/kg turned out to be 67%. The 50% inhibitory concentration (IC50) in test [2] was < 5 µM. For the same compound, in test [3] (100 μM), the activity at 100 µM amounted to 91%. The 50% effective dose (ED50) in test [4] was ~10 mg/kg. Besides, in test [5] (1 μM), the activity at 1 µM came out at 93%. Besides, the activity at 10 µM in test [5] came out at 15%.

With `CC(OC(=O)[C@@H](N)Cc1ccccc1)C1CC(c2cc(C(C)(C)C)c(O)c(C(C)(C)C)c2)=NO1` (stereo partly drawn) [Example 73, L-Phenylalanine-1-(3-(4-hydroxy-3,5-di-tert-butylphenyl)-2-isoxazolin-5-yl)ethyl ester hydrochloride], in test [1], the inhibition in vivo at 50 mg/kg stood at 73%. The activity at 25 µM in test [3] (25 μM) came to 100%. In test [6], the activity at 1 µM amounted to 100% and the activity at 10 µM was 9%.

For the compound `C[C@@H](O)[C@@H]1CC(c2cc(C(C)(C)C)c(O)c(C(C)(C)C)c2)=NO1` (relative stereo) [Example 19], in test [1], the inhibition in vivo at 25 mg/kg was determined as 85%. Further, the IC50 in test [2] was < 5 µM. The activity at 10 µM amounted to 100% in test [3], 78% in test [7] and 94% in test [6]. In addition, the activity at 100 µM in test [7] was 20%.

Take `CC(=O)c1cc(-c2cc(C(C)(C)C)c(O)c(C(C)(C)C)c2)no1` [Example 59, 3-(4-Hydroxy-3,5-di-tert-butylphenyl)-5-acetylisoxazole]: in test [2], the concentration for half-maximal inhibition (IC50) is 30 µM. For the same compound, the activity at 1 µM in test [7] (1 μM) came out at 91%. In test [7], the activity at 10 µM was 61% and the activity at 100 µM was 35%. In test [4], this compound registered an ED50 of 1 to 3 mg/kg. Besides, in test [6], the activity at 1 µM stood at 135% and the activity at 10 µM worked out at 48%.

Regarding `CC(C)(C)c1cc(C2=NOC(CO)C2)cc(C(C)(C)C)c1O` (stereo not drawn) [Example 1, 3-(4-Hydroxy-3,5-di-tert-butylphenyl)-5-hydroxymethyl-2-isoxazoline], the inhibition in vivo at 50 mg/kg in test [1] worked out at 70%. For the same compound, the IC50 in test [2] lay in the range of 5 to 10 µM. The activity at 10 µM is 93% in test [3] and 92% in test [5]. This compound also had a 50% effective dose (ED50) in test [4] of 10 to 50 mg/kg.

Regarding `CC(=O)C1CC(c2cc(C(C)(C)C)c(O)c(C(C)(C)C)c2)=NO1` (stereo not drawn) [Example 13], the inhibition in vivo at 50 mg/kg in test [1] was 84%. In test [2], the IC50 worked out at 6.1 µM. Besides, the results for the activity at 10 µM in test [3], in test [7] and in test [6] were 98%, 77% and 65%, respectively. Moreover, in test [7], the activity at 100 µM was determined as 20%. The 50% effective dose (ED50) in test [4] is ~50 mg/kg. The activity at 25 µM in test [6] (25 μM) worked out at 22%.

As to `CC(OC(=O)[C@@H](N)Cc1ccccc1)c1cc(-c2cc(C(C)(C)C)c(O)c(C(C)(C)C)c2)no1` (stereo partly drawn) [Example 70, L-Phenylalanine-1-(3-(4-hydroxy-3,5-di-tert-butylphenyl)isoxazol-5-yl)ethylester hydrochloride], in test [1], the inhibition in vivo at 25 mg/kg came out at 59%. Further, in test [2], the IC50 worked out at 5 µM. Also, the activity at 10 µM in test [6] amounted to 22%.
